Assay results taken from patent EP4818168A1, “FUSED RING COMPOUND, PHARMACEUTICAL COMPOSITION THEREOF AND USE THEREOF” (priority 2023, dated 2025).
Where two headings read alike, the source gives them in different places.

Experiments:
H82 cells = assay: cells; format: cell-based; details: Homo sapiens
How it was run: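 H82 cells in RPMI1640 + 10% FBS exposed to compound (0.1% DMSO final) for 6 days at 37 °C, 5% CO2. Viability read by CellTiter-Glo ATP luminescence, normalised to DMSO and medium controls; IC50 from nonlinear regression of the dose–survival curve.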

AURKA = molecular target: T1, AURKA (Homo sapiens, UniProt O14965); format: cell-based
T1 construct: endogenous in cells; host or cells: Jurkat cells
T1 sequence (O14965 1-403): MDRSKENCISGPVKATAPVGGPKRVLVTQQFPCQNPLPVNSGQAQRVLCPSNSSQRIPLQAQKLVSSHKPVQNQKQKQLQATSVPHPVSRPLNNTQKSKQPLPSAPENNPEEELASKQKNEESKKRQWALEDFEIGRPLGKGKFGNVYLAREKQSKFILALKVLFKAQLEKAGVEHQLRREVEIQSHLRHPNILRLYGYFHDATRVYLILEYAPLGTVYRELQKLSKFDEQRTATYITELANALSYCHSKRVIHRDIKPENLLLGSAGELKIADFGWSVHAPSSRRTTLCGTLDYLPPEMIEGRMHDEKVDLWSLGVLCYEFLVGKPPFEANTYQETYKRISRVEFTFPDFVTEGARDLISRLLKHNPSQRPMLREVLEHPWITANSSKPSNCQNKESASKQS
How it was run: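 Jurkat cells seeded at 1×10^6 cells/500 µL and treated with compound; lysates run on SDS-PAGE, blotted to nitrocellulose and probed overnight at 4°C for AURKA. Chemiluminescent or fluorescent band intensity fitted to a curve to give DC50 for protein degradation.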

[1] = NCI-H82, H82 cells, 4000 cells/well, CellTiter-Glo, read-out: IC50 in H82 Cells
[2] = 100 nM compound, Jurkat cells, 24 h, Table 2
[3] = 1 µM compound, Jurkat cells, 24 h, Table 2
[4] = NCI-H82, read-out: IC50 in H82 Cells

Row | SMILES | IC50 (H82 cells; [1]) | Percentage of AURKA Degradation Induced by 100 nM Compound in Jurkat Cells (AURKA; [2]) | Percentage of AURKA Degradation Induced by 1 µM Compound in Jurkat Cells (AURKA; [3]) | IC50 (H82 cells; [4]) | Percentage of AURKA Degradation Induced by 100 nM Compound in Jurkat Cells (AURKA) | Percentage of AURKA Degradation Induced by 1 µM Compound in Jurkat Cells (AURKA)
1 | O=C1CCN(c2ccc(N3CC(N4CCN(C(=O)C56CC(Nc7ncc8c(n7)-c7ccc(Cl)cc7C(c7c(F)cccc7F)=NC8)(C5)C6)CC4)C3)nc2)C(=O)N1 [Compound A275] | < 1 µM | +++ (Degradation > 70%) | +++ (Degradation > 70%) |  |  | 
2 | O=C1CCN(c2ccc(N3CC(N4CCN(Cc5ccc(Nc6ncc7c(n6)-c6ccc(Cl)cc6C(c6c(F)cccc6F)=NC7)cc5)CC4=O)C3)nc2)C(=O)N1 [Compound A276] |  |  |  | < 1 µM | ++ (key: +: Degradation ≤ 30%; ++: 30% < Degradation ≤ 70%; +++: Degradation > 70%) | ++ (key: +: Degradation ≤ 30%; ++: 30% < Degradation ≤ 70%; +++: Degradation > 70%)
3 | O=C1CCN(c2ccc(N3CCN(C(=O)C4CCN(c5ccc(Nc6ncc7c(n6)-c6ccc(Cl)cc6C(c6c(F)cccc6F)=NC7)cc5)CC4)CC3)nc2)C(=O)N1 [Compound A277] | < 1 µM | +++ (Degradation > 70%) | +++ (Degradation > 70%) |  |  | 
4 | O=C1CCN(c2ccc(N3CC(CN4CCN(C(=O)C56CC(Nc7ncc8c(n7)-c7ccc(Cl)cc7C(c7c(F)cccc7F)=NC8)(C5)C6)CC4)C3)nc2)C(=O)N1 [Compound A279] | < 1 µM | +++ (Degradation > 70%) | +++ (Degradation > 70%) |  |  | 
5 | O=C1CCN(c2ccc(N3CCC(C(=O)N4CCN(C56CC(Nc7ncc8c(n7)-c7ccc(Cl)cc7C(c7nccs7)=NC8)(C5)C6)C(=O)C4)CC3)nc2)C(=O)N1 [Compound A280] | < 1 µM | +++ (Degradation > 70%) | +++ (Degradation > 70%) |  |  | 
6 | O=C1CCN(c2ccc(N3CCN(CC4(O)CN(c5ccc(Nc6ncc7c(n6)-c6ccc(Cl)cc6C(c6c(F)cccc6F)=NC7)cc5)C4)CC3)nc2)C(=O)N1 [Compound A281] | < 1 µM | +++ (Degradation > 70%) | +++ (Degradation > 70%) |  |  | 
7 | O=C1CCN(c2ccc(N3CCC(N4CCN(c5ccc(Nc6ncc7c(n6)-c6ccc(Cl)cc6C(c6nccs6)=NC7)cc5)C(=O)C4)CC3)nc2)C(=O)N1 [Compound A282] |  |  |  | < 1 µM | +++ (key: +: Degradation ≤ 30%; ++: 30% < Degradation ≤ 70%; +++: Degradation > 70%) | +++ (key: +: Degradation ≤ 30%; ++: 30% < Degradation ≤ 70%; +++: Degradation > 70%)
8 | O=C1CCN(c2ccc(N3CCC(CN4CC(=O)N(C56CC(Nc7ncc8c(n7)-c7ccc(Cl)cc7C(c7c(F)cccc7F)=NC8)(C5)C6)C(=O)C4)CC3)nc2)C(=O)N1 [Compound A283] | < 1 µM | +++ (Degradation > 70%) | +++ (Degradation > 70%) |  |  | 
9 | O=C1CCN(c2ccc(N3CCN(C(=O)C4CCN(C56CC(Nc7ncc8c(n7)-c7ccc(Cl)cc7C(c7c(F)cccc7F)=NC8)(C5)C6)C(=O)C4)CC3)nc2)C(=O)N1 (stereo not drawn) [Compound A284] | < 1 µM | +++ (Degradation > 70%) | ++ (30% < Degradation ≤ 70%) |  |  | 
10 | O=C1CCN(c2ccc(N3CCOC(C(=O)N4CCN(c5ccc(Nc6ncc7c(n6)-c6ccc(Cl)cc6C(c6c(F)cccc6F)=NC7)cc5)CC4)C3)nc2)C(=O)N1 (stereo not drawn) [Compound A285] | < 1 µM | +++ (Degradation > 70%) | +++ (Degradation > 70%) |  |  | 
11 | O=C1CCN(c2cnc(N3CCN(CC4(F)CN(c5ccc(Nc6ncc7c(n6)-c6ccc(Cl)cc6C(c6c(F)cccc6F)=NC7)cc5)C4)CC3)nc2)C(=O)N1 [Compound A286] | < 1 µM | ++ (30% < Degradation ≤ 70%) | ++ (30% < Degradation ≤ 70%) |  |  | 
12 | CP(C)(=O)c1cc(N2CCC(=O)NC2=O)ccc1N1CCN(C(=O)C2CCN(c3ccc(Nc4ncc5c(n4)-c4ccc(Cl)cc4C(c4c(F)cccc4F)=NC5)cc3)CC2)CC1 [Compound A287] | < 1 µM | + (Degradation ≤ 30%) | + (Degradation ≤ 30%) |  |  | 
13 | CP(C)(=O)c1cc(N2CCN(C(=O)C3CCN(c4ccc(Nc5ncc6c(n5)-c5ccc(Cl)cc5C(c5c(F)cccc5F)=NC6)cc4)CC3)CC2)ccc1N1CCC(=O)NC1=O [Compound A288] | < 1 µM | + (Degradation ≤ 30%) | + (Degradation ≤ 30%) |  |  | 
14 | O=C1CCN(c2ccc(N3CCC(O)(CN4CCN(C56CC(Nc7ncc8c(n7)-c7ccc(Cl)cc7C(c7c(F)cccc7F)=NC8)(C5)C6)C(=O)C4)CC3)nc2)C(=O)N1 [Compound A290] |  |  |  | < 1 µM | ++ (key: +: Degradation ≤ 30%; ++: 30% < Degradation ≤ 70%; +++: Degradation > 70%) | +++ (key: +: Degradation ≤ 30%; ++: 30% < Degradation ≤ 70%; +++: Degradation > 70%)
15 | O=C1CCN(c2ccc(N3CCN(CC4(F)CN(c5ccc(Nc6ncc7c(n6)-c6ccc(Cl)cc6C(c6nccs6)=NC7)cc5)C4)CC3)nc2)C(=O)N1 [Compound A291] | < 1 µM | +++ (Degradation > 70%) | +++ (Degradation > 70%) |  |  | 
16 | O=C1CCN(c2ccc(N3CC(C(=O)N4CCN(c5ccc(Nc6ncc7c(n6)-c6ccc(Cl)cc6C(c6nccs6)=NC7)cc5)CC4)C3)nc2)C(=O)N1 [Compound A292] | < 1 µM | +++ (Degradation > 70%) | +++ (Degradation > 70%) |  |  | 
17 | O=C1CCN(c2ccc(N3CCC(C4CN(C(=O)C56CC(Nc7ncc8c(n7)-c7ccc(Cl)cc7C(c7c(F)cccc7F)=NC8)(C5)C6)C4)CC3)nc2)C(=O)N1 [Compound A293] | < 1 µM | +++ (Degradation > 70%) | +++ (Degradation > 70%) |  |  | 
18 | O=C1CCN(c2ccc(N3CCC(F)(CN4CC(=O)N(C56CC(Nc7ncc8c(n7)-c7ccc(Cl)cc7C(c7c(F)cccc7F)=NC8)(C5)C6)C(=O)C4)CC3)nc2)C(=O)N1 [Compound A294] | < 1 µM | ++ (30% < Degradation ≤ 70%) | ++ (30% < Degradation ≤ 70%) |  |  | 
19 | N#Cc1cc(N2CCC(=O)NC2=O)ccc1N1CCN(C(=O)C2CCN(c3ccc(Nc4ncc5c(n4)-c4ccc(Cl)cc4C(c4c(F)cccc4F)=NC5)cc3)CC2)CC1 [Compound A296] | < 1 µM | +++ (Degradation > 70%) | +++ (Degradation > 70%) |  |  | 
20 | O=C1CCN(c2ccc(N3CC(C4CCN(C(=O)C56CC(Nc7ncc8c(n7)-c7ccc(Cl)cc7C(c7c(F)cccc7F)=NC8)(C5)C6)CC4)C3)nc2)C(=O)N1 [Compound A297] | < 1 µM | +++ (Degradation > 70%) | +++ (Degradation > 70%) |  |  | 
21 | O=C1CCN(c2ccc(N3CC4(CC(N5CCN(C67CC(Nc8ncc9c(n8)-c8ccc(Cl)cc8C(c8c(F)cccc8F)=NC9)(C6)C7)C(=O)C5)C4)C3)nc2)C(=O)N1 [Compound A298] | < 1 µM | +++ (Degradation > 70%) | +++ (Degradation > 70%) |  |  | 
